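Compound exposure: 48 hours, 5 concentrations, 96-well plates. GI50: concentration for 50% inhibition of growth.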 Activity calls are given as the source filed them. Rule as the data show it: active = GI50 up to about 1.1 µM and inactive = higher.
Key:
Experiment in all cases: DTP human tumour cell line panel, 48 h
SF-268 = test system: SF-268
HL-60 = test system: HL-60
RPMI-8226 = test system: RPMI-8226
SK-MEL-5 = test system: SK-MEL-5
OVCAR-5 = test system: OVCAR-5
HOP-92 = test system: HOP-92
SF-539 = test system: SF-539
UACC-257 = test system: UACC-257
SNB-78 = test system: SNB-78
OVCAR-8 = test system: OVCAR-8
SNB-75 = test system: SNB-75
HCT-15 = test system: HCT-15
UACC-62 = test system: UACC-62
RXF 393 = test system: RXF 393
DMS-273 = test system: DMS-273
NCI-H522 = test system: NCI-H522
Malme-3M = test system: Malme-3M
NCI-H226 = test system: NCI-H226
SK-MEL-28 = test system: SK-MEL-28
CAKI-1 = test system: CAKI-1
HT-29 = test system: HT-29
SW-620 = test system: SW-620
COLO 205 = test system: COLO 205
DLD-1 = test system: DLD-1
U-251 = test system: U-251
IGROV-1 = test system: IGROV-1
UO-31 = test system: UO-31
SF-295 = test system: SF-295
SK-MEL-2 = test system: SK-MEL-2
MOLT-4 = test system: MOLT-4
KM-20L2 = test system: KM-20L2
HOP-18 = test system: HOP-18
K562 = test system: K562
ACHN = test system: ACHN
KM12 = test system: KM12
A498 = test system: A498
EKVX = test system: EKVX
CCRF-CEM = test system: CCRF-CEM
HOP-62 = test system: HOP-62
786-0 = test system: 786-0
LOX IMVI = test system: LOX IMVI
A549 = test system: A549
TK-10 = test system: TK-10
SN12C = test system: SN12C
NCI-H23 = test system: NCI-H23
M19-MEL = test system: M19-MEL
SK-OV-3 = test system: SK-OV-3
HCC 2998 = test system: HCC 2998
NCI-H460 = test system: NCI-H460
OVCAR-3 = test system: OVCAR-3
HCT-116 = test system: HCT-116
DMS-114 = test system: DMS-114
SNB-19 = test system: SNB-19
M14 = test system: M14
LXFL 529 = test system: LXFL 529
OVCAR-4 = test system: OVCAR-4
SR = test system: SR

Cc1ccc(/C=C/C(=O)c2sc(C(N)=S)nc2C)cc1
GI50 (SF-268): > 100 µM (inactive)
GI50 (HL-60): > 100 µM (inactive)
GI50 (RPMI-8226): > 100 µM (inactive)
GI50 (SK-MEL-5): 45.8 µM (inactive)
GI50 (OVCAR-5): > 100 µM (inactive)
GI50 (HOP-92): > 100 µM (inactive)
GI50 (SF-539): > 100 µM (inactive)
GI50 (UACC-257): > 100 µM (inactive)
GI50 (SNB-78): > 100 µM (inactive)
GI50 (OVCAR-8): > 100 µM (inactive)
GI50 (SNB-75): > 100 µM (inactive)
GI50 (HCT-15): > 100 µM
GI50 (UACC-62): > 100 µM (inactive)
GI50 (RXF 393): > 100 µM (inactive)
GI50 (DMS-273): > 100 µM (inactive)
GI50 (NCI-H522): > 100 µM (inactive)
GI50 (Malme-3M): > 100 µM (inactive)
GI50 (NCI-H226): > 100 µM (inactive)
GI50 (SK-MEL-28): > 100 µM (inactive)
GI50 (CAKI-1): > 100 µM (inactive)
GI50 (HT-29): > 100 µM (inactive)
GI50 (SW-620): > 100 µM (inactive)
GI50 (COLO 205): > 100 µM (inactive)
GI50 (DLD-1): > 100 µM (inactive)
GI50 (U-251): > 100 µM (inactive)
GI50 (IGROV-1): > 100 µM (inactive)
GI50 (UO-31): > 100 µM (inactive)
GI50 (SF-295): > 100 µM (inactive)
GI50 (SK-MEL-2): > 100 µM (inactive)
GI50 (MOLT-4): > 100 µM (inactive)
GI50 (KM-20L2): > 100 µM (inactive)
GI50 (HOP-18): > 100 µM (inactive)
GI50 (K562): > 100 µM (inactive)
GI50 (ACHN): > 100 µM (inactive)
GI50 (KM12): > 100 µM (inactive)
GI50 (A498): > 100 µM (inactive)
GI50 (EKVX): > 100 µM (inactive)
GI50 (CCRF-CEM): > 100 µM (inactive)
GI50 (HOP-62): > 100 µM (inactive)
GI50 (786-0): > 100 µM (inactive)
GI50 (LOX IMVI): > 100 µM (inactive)
GI50 (A549): > 100 µM (inactive)
GI50 (TK-10): > 100 µM (inactive)
GI50 (SN12C): > 100 µM (inactive)
GI50 (NCI-H23): > 100 µM (inactive)
GI50 (M19-MEL): > 100 µM (inactive)
GI50 (SK-OV-3): > 100 µM (inactive)
GI50 (HCC 2998): > 100 µM (inactive)
GI50 (NCI-H460): > 100 µM (inactive)
GI50 (OVCAR-3): > 100 µM (inactive)

O=C1CCCC/C1=C\c1ccc(Cl)c(Cl)c1
GI50 (HCT-116): 17.1 µM (inactive)
GI50 (SF-268): 23.3 µM (inactive)
GI50 (HL-60): 19 µM (inactive)
GI50 (SK-MEL-5): 17.2 µM (inactive)
GI50 (SF-539): 17.2 µM (inactive)
GI50 (SNB-78): 19.1 µM (inactive)
GI50 (OVCAR-8): 23.6 µM (inactive)
GI50 (SNB-75): 16.3 µM (inactive)
GI50 (HCT-15): 19.1 µM
GI50 (UACC-62): 23.4 µM (inactive)
GI50 (DMS-114): 18.7 µM (inactive)
GI50 (SNB-19): 25.8 µM (inactive)
GI50 (DMS-273): 20 µM (inactive)
GI50 (SK-MEL-28): 19.1 µM (inactive)
GI50 (CAKI-1): 19.2 µM (inactive)
GI50 (HT-29): 22.3 µM (inactive)
GI50 (SW-620): 21.6 µM (inactive)
GI50 (COLO 205): 35.1 µM (inactive)
GI50 (DLD-1): 23.2 µM (inactive)
GI50 (M14): 19.9 µM (inactive)
GI50 (U-251): 16.6 µM (inactive)
GI50 (IGROV-1): 25.2 µM (inactive)
GI50 (UO-31): 17.8 µM (inactive)
GI50 (MOLT-4): 18.1 µM (inactive)
GI50 (KM-20L2): 20.7 µM (inactive)
GI50 (HOP-18): 18.8 µM (inactive)
GI50 (K562): 18.9 µM (inactive)
GI50 (ACHN): 18.3 µM (inactive)
GI50 (LXFL 529): 17.1 µM (inactive)
GI50 (A498): 58.5 µM (inactive)
GI50 (OVCAR-4): 18.2 µM (inactive)
GI50 (EKVX): 45.7 µM (inactive)
GI50 (CCRF-CEM): 21.3 µM (inactive)
GI50 (HOP-62): 57.7 µM (inactive)
GI50 (786-0): > 10 µM (inactive)
GI50 (LOX IMVI): 18 µM (inactive)
GI50 (A549): 34.4 µM (inactive)
GI50 (TK-10): 17 µM (inactive)
GI50 (SN12C): 16.6 µM (inactive)
GI50 (NCI-H23): 23.3 µM (inactive)
GI50 (M19-MEL): 20.7 µM (inactive)
GI50 (SK-OV-3): 45.8 µM (inactive)
GI50 (HCC 2998): 21.7 µM (inactive)
GI50 (NCI-H460): 20.1 µM (inactive)

O=Cc1cc2c(cc1-c1cc3c(cc1C=O)OCO3)OCO2
GI50 (HCT-116): 58.7 µM (inactive)
GI50 (SF-268): > 100 µM (inactive)
GI50 (HL-60): 34.1 µM (inactive)
GI50 (RPMI-8226): 30.3 µM (inactive)
GI50 (SK-MEL-5): > 100 µM (inactive)
GI50 (OVCAR-5): > 100 µM (inactive)
GI50 (HOP-92): > 100 µM (inactive)
GI50 (SF-539): > 100 µM (inactive)
GI50 (UACC-257): > 100 µM (inactive)
GI50 (SNB-78): > 100 µM (inactive)
GI50 (OVCAR-8): > 100 µM (inactive)
GI50 (SNB-75): > 100 µM (inactive)
GI50 (HCT-15): 70.3 µM
GI50 (UACC-62): > 100 µM (inactive)
GI50 (DMS-114): > 100 µM (inactive)
GI50 (SNB-19): 87.9 µM (inactive)
GI50 (RXF 393): 37.3 µM (inactive)
GI50 (DMS-273): 64.3 µM (inactive)
GI50 (NCI-H522): 64.1 µM (inactive)
GI50 (Malme-3M): > 100 µM (inactive)
GI50 (NCI-H226): > 100 µM (inactive)
GI50 (SK-MEL-28): 95.1 µM (inactive)
GI50 (CAKI-1): 66.2 µM (inactive)
GI50 (HT-29): 90.2 µM (inactive)
GI50 (SW-620): 55.8 µM (inactive)
GI50 (COLO 205): 39.5 µM (inactive)
GI50 (SR): 21 µM (inactive)
GI50 (DLD-1): 50.4 µM (inactive)
GI50 (M14): > 100 µM (inactive)
GI50 (U-251): > 100 µM (inactive)
GI50 (IGROV-1): > 100 µM (inactive)
GI50 (UO-31): 71.6 µM (inactive)
GI50 (SF-295): > 100 µM (inactive)
GI50 (SK-MEL-2): > 100 µM (inactive)
GI50 (MOLT-4): 45.5 µM (inactive)
GI50 (KM-20L2): > 100 µM (inactive)
GI50 (HOP-18): > 100 µM (inactive)
GI50 (K562): 30.8 µM (inactive)
GI50 (ACHN): 71.8 µM (inactive)
GI50 (LXFL 529): > 100 µM (inactive)
GI50 (KM12): 83 µM (inactive)
GI50 (A498): > 100 µM (inactive)
GI50 (OVCAR-4): > 100 µM (inactive)
GI50 (EKVX): > 100 µM (inactive)
GI50 (CCRF-CEM): 23.4 µM (inactive)
GI50 (HOP-62): > 100 µM (inactive)
GI50 (786-0): > 100 µM (inactive)
GI50 (LOX IMVI): 23.3 µM (inactive)
GI50 (A549): 50.4 µM (inactive)
GI50 (TK-10): > 100 µM (inactive)
GI50 (SN12C): > 100 µM (inactive)
GI50 (NCI-H23): 72.4 µM (inactive)
GI50 (M19-MEL): 56.8 µM (inactive)
GI50 (SK-OV-3): > 100 µM (inactive)
GI50 (HCC 2998): > 100 µM (inactive)
GI50 (NCI-H460): > 100 µM (inactive)
GI50 (OVCAR-3): 55.6 µM (inactive)

COc1ccc2c(=O)oc3c(OC)cc(CCN(C)C)c4c(=O)oc1c2c34
GI50 (SF-268): 12.9 µM (inactive)
GI50 (SK-MEL-5): 12.3 µM (inactive)
GI50 (OVCAR-5): 17.9 µM (inactive)
GI50 (SNB-78): 14.3 µM (inactive)
GI50 (OVCAR-8): 10.4 µM (inactive)
GI50 (UACC-62): 17.9 µM (inactive)
GI50 (DMS-114): 12.1 µM (inactive)
GI50 (SNB-19): 14.3 µM (inactive)
GI50 (DMS-273): 15.6 µM (inactive)
GI50 (NCI-H522): 12.5 µM (inactive)
GI50 (Malme-3M): 14.5 µM (inactive)
GI50 (NCI-H226): 17.9 µM (inactive)
GI50 (COLO 205): 4.94 µM (inactive)
GI50 (DLD-1): 22.8 µM (inactive)
GI50 (M14): 17.4 µM (inactive)
GI50 (U-251): 14.4 µM (inactive)
GI50 (SK-MEL-2): 17.7 µM (inactive)
GI50 (MOLT-4): 11.5 µM (inactive)
GI50 (KM-20L2): 14.9 µM (inactive)
GI50 (HOP-18): 14.4 µM (inactive)
GI50 (K562): 2.56 µM (inactive)
GI50 (LXFL 529): 13.3 µM (inactive)
GI50 (A498): 20.5 µM (inactive)
GI50 (CCRF-CEM): 1.49 µM (inactive)
GI50 (HOP-62): 14.2 µM (inactive)
GI50 (SN12C): 13.8 µM (inactive)
GI50 (NCI-H23): 17.8 µM (inactive)
GI50 (M19-MEL): 14.5 µM (inactive)
GI50 (HCC 2998): 12.4 µM (inactive)
GI50 (OVCAR-3): 16.1 µM (inactive)
